From US20180044628A1, “Method for Biofilm Control and Treatment” (priority 2015, published 2018) come the findings set out here.

Holding throughout (type): cell-based, Bacillus subtilis NCIB 3610
The test system of assay [1] is Bacillus subtilis biofilms. Put plainly: Biofilm growth oscillations in a microfluidic device, followed by time-lapse phase contrast microscopy and image differencing. The procedure: Growth conditions. The biofilms were grown using MSgg medium^16. It contains 5 mM potassium phosphate buffer (pH 7.0), 100 mM MOPS buffer (pH 7.0, adjusted using NaOH), 2 mM MgCl2, 700 μM CaCl2, 50 μM MnCl2, 100 μM FeCl3, 1 μM ZnCl2, 2 μM thiamine HCl, 0.5% (v/v) glycerol and 0.5% (w/v) monosodium glutamate. The MSgg medium was made from stock solutions on the day of the experiment, and the stock solution for glutamate was made each week.
Microfluidics. The CellASIC ONIX Microfluidic Platform and the Y04D microfluidic plate (EMD Millipore) were used. It provides unconventionally large chambers, allowing the formation of colonies containing millions of cells, yet still leaves room for media flow. Media flow in the microfluidic chamber was driven by a pneumatic pump from the CellASIC ONIX Microfluidic Platform, and the pressure from the pump was kept stable during the course of the oscillation. In most of the experiments, a pump pressure of 1 psi was used with only one media inlet open (there are 6 media inlets in the Y04D plate), which corresponds to a flow speed of ˜16 μm/s in the growth chamber.
On the day before the experiment, cells from −80° C. glycerol stock were streaked onto LB agar plate and incubated at 37° C. for overnight. The next day morning, a single colony was picked from the plate and inoculated into 3 ml of LB broth in a 50 ml conical tube, and then incubated in 37° C. shaker. After 2.5 hours of incubation, the cell culture was centrifuged at 2100 rcf for 1 min, and then the cell pellet was re-suspended in MSgg and then immediately loaded into microfluidics. After the loading, cells in the microfluidic chamber were incubated at 37° C. for 90 min, and then the temperature was kept at 30° C. for the rest of the experiment.
Time-Lapse Microscopy. The growth of the biofilms was recorded using phase contrast microscopy. The microscopes used were Olympus IX81 and IX83, and DeltaVision PersonalDV. To image entire biofilms, 10× lens objectives were used in most of the experiments. Images were taken every 10 min Whenever fluorescence images were recorded, the minimum exposure time was used that still provided a good signal-to-noise ratio.
(§1) Biofilm growth rate. ImageJ (National Institutes of Health) and MATLAB (MathWorks) were used for image analysis. In house software was also developed to perform colony detection and quantification of colony expansion. Multiple methods of colony detection were used to ensure the accuracy of the analysis. To detect regions of expansion in a biofilm, image differencing was performed on snapshots of the biofilm from time-lapse microscopy videos. Specifically, the difference between two consecutive phase contrast images (taken 10 min apart) was calculated by finding the absolute difference between each pixel in each image. […] The intensity values from the stack correlate with the expansion inside the biofilm. The growth area was determined by converting difference images to binary images and then measuring the area of the colony growth region (white pixels). To measure cell replication time, the length and division of individual cells were tracked in the biofilm periphery (FIG. 8b).

A further assay deals with nasA promoter. As to the kind of experiment: PnasA-YFP reporter of glutamine limitation in biofilms, with constitutive Phyperspank-CFP as control. The procedure:
FIG. 2a. […] Glutamine limitation was monitored using YFP expressed from the nasA promoter, which is activated upon glutamine limitation^21. FIG. 2b. […] FIG. 2c. Growth area before and after addition of 1 mM glutamine to an oscillating colony. FIG. 2d. […] FIG. 2e. […] Scale bar represents 100 μm. FIG. 2f. Growth area of an oscillating colony before and after addition of 30 mM glutamate (shading). FIG. 2g.
To determine whether biofilms experience glutamine limitation, expression of nasA, one of several genes activated in response to a lack of glutamine^21, was measured.

Assay [2] relates to Bacillus subtilis biofilms. Put plainly: Cell death (Sytox Green) and cell growth (difference images) within biofilms under external attack. As to the method: Scale bar represents 50 μm. […] Error bars represent standard deviations.
Scale bar represents 100 μm.
as §1

Where [3] appears, read: 1 mM glutamine added to growth media.

On to `N` [ammonium], for which the “colony growth after removal of external ammonium” value in assay [1] (additional ammonium (13 mM) suddenly removed from the media) is “growth in the biofilm periphery halted”. Besides, the “effect on periodic halting in biofilm expansion” value in assay [1] (media supplemented with 1 mM ammonium) is on record as “eliminated the periodic halting in biofilm expansion”. Moreover, in the assay on nasA promoter (1 mM external ammonium added), the “expression from constitutive reporter (Phyperspank-CFP + 1 mM IPTG)” value is “does not affect expression from a constitutive reporter” and the “expression from the PnasA-YFP reporter” value is “represses expression from the PnasA-YFP reporter”.

`O=C(N[C@H](CO)[C@H](O)c1ccc([N+](=O)[O-])cc1)C(Cl)Cl` [chloramphenicol]: in assay [2] (wild type biofilm, chloramphenicol 5 μg/ml (FIG. 12)), the “growth of interior cells after attack” value is recorded as “growth of interior cells was observed”.

Take `N[C@@H](CCC(=O)O)C(=O)[O-].[Na+]` [glutamate, monosodium glutamate]: the “effect on biofilm oscillations” value in assay [1] (30 mM glutamate added to MSgg medium, oscillating colony) is “not quenched”; in assay [1] (glutamate increased by 5 times of normal MSgg levels), “leads to quenching of the oscillation”.

`NC(=O)CC[C@H](N)C(=O)O` [glutamine]: the “effect on periodic halting of biofilm growth (oscillations)” value in assay [1] (1 mM glutamine added to MSgg medium, oscillating colony) was “eliminated periodic halting of biofilm growth”. Further, in the assay on nasA promoter (setting [3]), the “expression of constitutive promoter (Phyperspank-CFP + 1 mM IPTG)” value is “did not affect expression of a constitutive promoter” and the “nasA promoter expression (PnasA-YFP)” value is recorded as “reduced nasA promoter expression”.

As to `OCC(O)CO` [glycerol], the “effect on biofilm oscillations” value in assay [1] (glycerol increased by 5 times of normal MSgg levels) is listed as “does not”.

For the compound `OO` [hydrogen peroxide], the killing of biofilm result in assay [2] (GDH overexpression strain (Phyp-RocG, induced with 1 mM IPTG) exposed to hydrogen peroxide) was “more effective global killing throughout the biofilm”. Also, the “cell death (Sytox marker) in biofilm” value in assay [2] (wild type biofilm, H2O2 2% w/w (FIG. 4b) or 0.15% v/v (FIG. 12)) was “increased cell death was observed predominantly in the biofilm periphery”. For the same compound, the “growth of interior cells after attack” value in assay [2] (wild type biofilm, H2O2 2% w/w (FIG. 4c) or 0.15% v/v (FIG. 12)) is listed as “led to growth of interior cells”.
